{"source": "patent US4010191A", "about": "“Acyl derivatives of substituted bis-arylalkylamino compounds” (Deutsche Gold- und Silber-Scheideanstalt vormals Roessler, priority 1969, dated 1977)", "key": {"[1]": {"test_system": "detached tracheas obtained from guinea pigs", "assay": "Broncholytic action on detached tracheas (histamine spasm)", "parameters": "species or system guinea pig", "details": "comparative tests"}, "heart": {"test_system": "heart", "assay": "Heart and circulatory action, comparative tests with papaverine (Langendorff hearts / dogs)", "parameters": "species or system guinea pig; dog", "procedure": "The compounds of the invention were tested in detached guinea pig hearts by the method of Langendorff (Pfluger's Arch. 61 (1895) 291) in respect of the coronary flow, the inotropic action and the heart frequency. Also there were tested in anaesthetized dogs which had been subjected to a thoracostomy.\nThe significant parameters of the heart and circulatory activity in this case were determined by means of electromagnetic flux measurement and pressure measurement in the interior of the heart ventricle."}}}
{"compound": "COc1ccc(Cc2nccc3cc(OC)c(OC)cc23)cc1OC", "note": "[papaverine]", "values": [{"measurement": "duration of action compared to the compounds of the invention", "setting": "[1]", "result": "substantially shorter duration"}, {"measurement": "inotropy compared with the compounds of the invention", "setting": "heart", "result": "smaller inotropy"}, {"measurement": "duration of action compared with the compounds of the invention", "setting": "heart; heart and circulatory action", "result": "substantially shorter duration of action"}]}
